One assay concerns A431.H9 cells. Nature of the assay: anti-cancer drug sensitivity testing, conventional 2D culture in 96-well plates, alamarBlue cell viability. The format is cell-based. Particulars: Homo sapiens, % cell viability 96 hours after drug treatment, read-out: IC50 of A431.H9 cells cultured in conventional 2D condition. Here is the method:
To investigate the stability of long-term hanging drop spheroid culture using the designed array plate, osmolality measurements were performed while culturing three types of cells: kidney fibroblast cell (COS7), murine embryonic stem (mES) cell (ES-D3), and a human carcinoma cell that stably express mesothelin (A431.H9). […]
According to the procedure mentioned above, A431.H9 spheroids at the specified cell numbers were formed, and their growth media were exchanged every other day. […] Cellular viability was monitored at 24, 48, 72, and 96 hours of drug incubation using alamarBlue (Invitrogen). […] Following incubation, each A431.H9 hanging drop spheroid sample plate was read using a plate reader (FLx800 Fluorescence Microplate Reader, Biotek) at 525 nm excitation and 590 nm emission to obtain fluorescence intensity readout. As the fluorescence intensity of alamarBlue is directly proportional to cell number, the average percent cell viability for each drug concentration can be calculated easily by normalizing to the 0 μM untreated spheroid control. […]

In assay [1] the test system is A431.H9 spheroids. In words: anti-cancer drug sensitivity testing, 3D spheroids in 384 hanging drop array plate, alamarBlue cell viability. The settings on record: Homo sapiens. The format is cell-based. The protocol:
To investigate the stability of long-term hanging drop spheroid culture using the designed array plate, osmolality measurements were performed while culturing three types of cells: kidney fibroblast cell (COS7), murine embryonic stem (mES) cell (ES-D3), and a human carcinoma cell that stably express mesothelin (A431.H9). Prior to performing hanging drop culture using the plate, ES-D3 cells were cultured in dishes coated with 0.1% w/v porcine gel (Sigma-Aldrich) and maintained in medium consisting of Dulbecco's Modified Eagle's Medium (DMEM) (Gibco 11960, Invitrogen) with 15% v/v fetal bovine serum (FBS) (Gibco 10082, Invitrogen), 4 mM L-glutamin (Invitrogen), 0.1 mM 2-mercapto-ethanol (Sigma-Aldrich), 0.02% v/v sodium pyruvate (Sigma-Aldrich), 100 U ml^−1 penicillin (Invitrogen), 100 U ml^−1 streptomycin (Invitrogen), and 1000 U ml^−1 ESGRO (Invitrogen) which contains leukemia inhibitory factor (LIF). COS7 and A431.H9 cells were cultured in DMEM (Gibco 11965, Invitrogen) with 10% v/v FBS (Gibco 10082, Invitrogen), and 1% v/v antibiotic-antimicotic (Gibco 15240, Invitrogen). All the cells were cultured in a humidified incubator (37° C. in an atmosphere of 5% CO^2). Cell suspensions for the hanging drop experiments were made by dissociating cells with 0.25% trypsin-EDTA (Gibco 25200, Invitrogen), centrifugation of dissociated cells at 1000 rpm for 1 min at room temperature, and re-suspended in growth media. Cell density was estimated using a hemocytometer.
On the spheroid culture plate, a 15 μl cell suspension was dispensed into the access hole at each cell culture site to form a hanging drop. In order to prevent evaporation, 4 ml of distilled water was added into the peripheral water reservoir. In addition, the plate was sandwiched by a well-plate lid and a 96-well plate filled with distilled water, and wrapped using a Parafilm. The growth media was exchanged every other day by taking 5 μl solution from a drop, and adding 7 μl fresh growth media into a drop. For the osmolality measurement, 10 μl sample solution was pipetted out from a drop and transferred to a vapor pressure osmometer (Vapro Model 5520, Wesco, Inc.) for analysis.
According to the procedure mentioned above, A431.H9 spheroids at the specified cell numbers were formed, and their growth media were exchanged every other day. TPZ and 5-FU stock solutions of four times the final testing concentrations (0, 0.1, 1, 10, 100, 1000, 5000 μM) were initially prepared in Dulbecco's phosphate buffered saline (D-PBS) (Gibco 14190, Invitrogen). On day 2 of A431.H9 spheroid culture, 5 μl of the appropriate concentration of TPZ (or 5-FU) stock solutions was subsequently added to each of the 15 μl A431.H9 cell hanging drop droplets. Cellular viability was monitored at 24, 48, 72, and 96 hours of drug incubation using alamarBlue (Invitrogen). Following manufacturer's protocol, 2 μl (one-tenth of each hanging drop sample volume) of alamarBlue was added to each A431.H9 hanging drop spheroid sample and incubated for 2 hours. Following incubation, each A431.H9 hanging drop spheroid sample plate was read using a plate reader (FLx800 Fluorescence Microplate Reader, Biotek) at 525 nm excitation and 590 nm emission to obtain fluorescence intensity readout. As the fluorescence intensity of alamarBlue is directly proportional to cell number, the average percent cell viability for each drug concentration can be calculated easily by normalizing to the 0 μM untreated spheroid control. […]
(In general: The colour change of resazurin is a common sign of viable cells or microbes.)

Assay [2] deals with A431.H9 spheroids. In words: time-lapse images of drug-treated spheroids in 384 hanging drop array plate. The format is cell-based, human. Particulars: all 3 spheroid sizes, 96 hours; for spheroid size over the drug treatment period: 10 μM drug; for spheroid viability / integrity over the drug treatment period: 5000 μM drug. Here is the method:
According to the procedure mentioned above, A431.H9 spheroids at the specified cell numbers were formed, and their growth media were exchanged every other day. TPZ and 5-FU stock solutions of four times the final testing concentrations (0, 0.1, 1, 10, 100, 1000, 5000 μM) were initially prepared in Dulbecco's phosphate buffered saline (D-PBS) (Gibco 14190, Invitrogen). On day 2 of A431.H9 spheroid culture, 5 μl of the appropriate concentration of TPZ (or 5-FU) stock solutions was subsequently added to each of the 15 μl A431.H9 cell hanging drop droplets. Cellular viability was monitored at 24, 48, 72, and 96 hours of drug incubation using alamarBlue (Invitrogen). Following manufacturer's protocol, 2 μl (one-tenth of each hanging drop sample volume) of alamarBlue was added to each A431.H9 hanging drop spheroid sample and incubated for 2 hours. Following incubation, each A431.H9 hanging drop spheroid sample plate was read using a plate reader (FLx800 Fluorescence Microplate Reader, Biotek) at 525 nm excitation and 590 nm emission to obtain fluorescence intensity readout. As the fluorescence intensity of alamarBlue is directly proportional to cell number, the average percent cell viability for each drug concentration can be calculated easily by normalizing to the 0 μM untreated spheroid control. Anti-cancer drug sensitivity experiments under 2D control conditions were performed in standard tissue culture treated 96-well plates (Corning Costar 3596), with everything else being the same as the 3D spheroid experiments. 50% of culture media was replaced by fresh media every other day.
FIGS. 3a-c show the time-lapse images of A431.H9 spheroids treated with TPZ at 0, 10, and 5000 μM for 3 different spheroid sizes (300, 1500, and 7500-cell spheroids). The control untreated A431.H9 spheroids at all 3 sizes still grow and proliferate properly over the duration of drug treatment. […] The IC50 of A431.H9 cells cultured in conventional 2D condition is about 50 μM, while the IC50 of the A431.H9 3D spheroids for all 3 sizes is about 8 μM. Contrary to most anti-cancer drugs, A431.H9 cells treated with TPZ are more resistant when cultured under 2D conditions rather than 3D conditions.
Similarly, FIGS. 4a-c show the time-lapse images of A431.H9 spheroids treated with 5-FU at 0, 10, and 5000 μM for 3 different spheroid sizes (300, 1500, and 7500-cell spheroids). Again, the control untreated A431.H9 spheroids at all 3 sizes all look healthy and still proliferate properly over the duration of drug treatment. […] By 96 hours after drug treatment, significant portions of cells had already dissociated from the A431.H9 spheroids, indicating drug cytotoxicity. […]

Where [3] appears, read: ALL3, 96 h, 3D condition, all 3 spheroid sizes (300, 1500, 7500-cell), 96 hours after drug treatment.

Take `O=c1[nH]cc(F)c(=O)[nH]1` [5-FU, 5-fluorouracil]: the IC50 with A431.H9 cells was about 0.1 µM; in the assay on A431.H9 spheroids [1] (96 h, 300-cell spheroids, 96 hours after treatment), about 3 µM; in the assay with A431.H9 spheroids [1] (96 h, 1500-cell spheroids, 96 hours after treatment), about 1 µM; with A431.H9 spheroids [1] (96 h, 7500-cell spheroids, 96 hours after treatment), about 90 µM; in the assay with A431.H9 spheroids [1] (setting [3]) it was 1 to 100 µM. Besides, in the assay with A431.H9 spheroids [2], the “spheroid size over the drug treatment period” value was “slowly become smaller”. In the assay with A431.H9 spheroids [2], the “spheroid viability / integrity over the drug treatment period” value is on record as “spheroid integrity was greatly compromised”.
As to `Nc1n[n+]([O-])c2ccccc2[n+]1[O-]` [TPZ, tirapazamine], the IC50 in the assay on A431.H9 cells is about 50 µM. In addition, the IC50 with A431.H9 spheroids [1] (setting [3]) was about 8 µM. In addition, in the assay with A431.H9 spheroids [2], the “spheroid size over the drug treatment period” value is reported as “stayed relatively constant” and the “spheroid viability / integrity over the drug treatment period” value is given as “poor viability”.

In general, IC50 refers to the concentration needed to halve the response being measured.
